SMILES strings stand for the structures. Converted amounts (≈) assume the structure as drawn.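 Five compound concentrations were applied to cells in 96-well plates for 48 hours; endpoints were derived by simple linear interpolation of the resulting dose-response curve. At the GI50, growth is halved. TGI denotes the concentration required for complete inhibition of growth.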

These results are taken from PubChem BioAssay (NCI).

Holding throughout (test): NCI-60 cell line screen, 48 h
The subject of experiment [1] is SK-MEL-28 melanoma.
Experiment [2] deals with UO-31 renal.
In experiment [3] the test system is SF-295 CNS.
Experiment [4] has as its system KM12 colon.
Experiment [5] concerns M14 melanoma.
Experiment [6] deals with LOX IMVI melanoma.
Experiment [7] relates to OVCAR-3 ovarian.
The subject of experiment [8] is SF-539 CNS.

`COC1=CC(=O)[C@@]2(C)C(C)[C@H](c3ccccc3)[C@H]2C1=O` (stereo not given in full): the TGI in experiment [1], in experiment [2], in experiment [3], in experiment [4], in experiment [5] and in experiment [6] was above 100 µM each time. Besides, the TGI in experiment [7] and in experiment [8] was above 100 µM throughout.

Turning to `N#C/C(=C/c1ccc([N+](=O)[O-])o1)c1ccccc1`, the TGI in experiment [1], in experiment [2], in experiment [3], in experiment [4], in experiment [5] and in experiment [6] was above 100 µM throughout. Moreover, the TGI in experiment [7] and in experiment [8] was above 100 µM each time.

With `O=C1C=C2SC3C[C@@]24CC1(O)[N+]1=c2c4c(c(O)c4c2=C(C=N4)CC1)N3`, the TGI in experiment [1] worked out at 3.03 µM; in experiment [2], 3.48 µM; in experiment [3], 2.95 µM; in experiment [4] it was 2.91 µM; in experiment [6], 1.55 µM; in experiment [7], 0.515 µM. The TGI in experiment [8] came to 2.85 µM.

For the molecule `O=[N+]([O-])c1ccc(N=P(c2ccccc2)(c2ccccc2)c2ccccc2)n2nnnc12`, the TGI in experiment [1] was above 100 µM; in experiment [2], above 100 µM; in experiment [3], 90.2 µM; in experiment [4], above 100 µM; in experiment [5] it was above 100 µM; in experiment [6] it was above 100 µM. Moreover, the figures for the TGI in experiment [7] and in experiment [8] were above 100 µM and 50.9 µM, respectively.

For `CC(=O)OC1CCC2(C)C(CCC3C2CCC2(C)C(c4ccc(=O)oc4)C(OC(C)=O)CC32O)C1` (stereo not given), the TGI in experiment [1] came to 0.497 µM; in experiment [2], 0.0712 µM; in experiment [3], 0.0456 µM; in experiment [4], 0.161 µM; in experiment [6], 0.38 µM; in experiment [7], 0.0235 µM. Besides, the TGI in experiment [8] was found to be 0.015 µM.

As for `Cc1ccc(-c2ccc3c(c2)Sc2ccccc2O3)n1C`, the TGI in experiment [1] was above 100 µM; in experiment [2], above 68.5 µM; in experiment [3] it was 0.799 µM; in experiment [4], above 43.2 µM; in experiment [5], above 65.4 µM; in experiment [6], above 100 µM. Besides, the TGI in experiment [7] was above 100 µM.

Consider `O=C1CCNC/C1=C\c1ccccc1`, for which the TGI in experiment [1] came to 35.1 µM; in experiment [2], 35.5 µM; in experiment [3], 67.8 µM; in experiment [4] it was 28.9 µM; in experiment [5] it was 27.9 µM; in experiment [6] it was 35.5 µM. In addition, the TGI came out at 54.8 µM in experiment [7] and 42.3 µM in experiment [8].

Take `CCCC(O)c1ccc2[nH]c3c(C)cc([N+](=O)[O-])c(C)c3c2c1` (stereo not given): the TGI in experiment [1], in experiment [2], in experiment [3], in experiment [4], in experiment [5] and in experiment [6] was above 100 µM each time. The TGI in experiment [7] and in experiment [8] was above 100 µM each time.

Regarding `O=C(CC(C(=O)c1ccsc1)c1cccs1)c1cccs1` (stereo not given), the TGI in experiment [1] is above 100 µM; in experiment [2], 92.7 µM; in experiment [3], above 100 µM; in experiment [5], above 100 µM; in experiment [6], above 100 µM; in experiment [7], above 100 µM. The TGI in experiment [8] was above 100 µM.

Take `C=CC[PH+](c1ccccc1)c1ccccc1.C=CC[PH+](c1ccccc1)c1ccccc1.[Pt+2].[S-]c1nc2ccccc2[nH]1.[S-]c1nc2ccccc2[nH]1`: the values for the GI50 in experiment [2], in experiment [3] and in experiment [7] were 2.58 µM, 2.82 µM and 1.9 µM, respectively. The values for the TGI in experiment [2], in experiment [3] and in experiment [7] were 36.5 µM, 8.44 µM and 5.16 µM, respectively.

Turning to `Cc1cc2c3ccccc3n3c2c2c1OC1(C)CCC(C2C1)C3(C)C` (stereo not given), the TGI in experiment [1], in experiment [2], in experiment [4], in experiment [5], in experiment [6] and in experiment [7] was above 25 µM in each case. Further, the TGI in experiment [8] is above 25 µM.

`CCOC(=O)CN(CC)C(=O)NC12CC3CC(CC(C3)C1)C2`: the TGI was above 750 µM in experiment [1]; 389 µM in experiment [2]; above 615 µM in experiment [3]; above 750 µM in experiment [4]; 409 µM in experiment [6]; 512 µM in experiment [7]. Besides, in experiment [8], the TGI was 659 µM.

Take `Cc1c2ccncc2c(C)c2c1[nH]c1ccc(O)cc12`: the GI50 is 0.073 µg/mL in experiment [2]; 0.0181 µg/mL in experiment [3]; 0.0458 µg/mL (≈ 0.174 µM) in experiment [4]; 0.0909 µg/mL in experiment [7]; 0.263 µg/mL (≈ 1 µM) in experiment [8]. In addition, the TGI in experiment [2] was 1.09 µg/mL; in experiment [3], 0.167 µg/mL; in experiment [4] it was 0.271 µg/mL; in experiment [7] it was 0.435 µg/mL; in experiment [8] it was 1.29 µg/mL.

As to `COC1=CC(=O)C2(C=C1OC)OC[C@H]1Oc3c(ccc4c3C=CC(C)(C)O4)C(=O)[C@H]12` (stereo not given in full), the TGI in experiment [1], in experiment [2], in experiment [4], in experiment [5], in experiment [6] and in experiment [7] was above 100 µM throughout. In addition, the TGI in experiment [8] was above 100 µM.
